The test system of data set [1] is AS iOPCs differentiated into iOLs. Kind of data set: Differentiation of AS patient-derived iOPCs into iOLs (MAG, CNPase, MBP). Format: cell-based, human. The following applies: AC-186 10 μM or clemastine 2.5 μM, 72 hours.
The conditions of data set [2]: rodents and dogs; cited from earlier work.
The subject of data set [3] is Angelman syndrome (AS) mice. The experiment in a line: Fear conditioning test in AS mice. It counts as in vivo, mouse. Here is the method: Animal handling and experimental use strictly followed NIH guidelines and protocols approved by the local Institutional Animal Care and Use Committee (IACUC) of Brown University. In all experiments, Mice were age and gender-matched. Multiple liters were used for all experiments. Weaned mice, housed in groups of two to four per cage, were maintained on a 12-h light/dark cycle with food and water ad libitum.
ESRβ agonist AC-186 treatment in vivo. 10 mg/kg AC-186 was daily IP delivered after dissolved at high concentration (30 mg/ml) in DMSO and further diluted in 20% PEG300. Vehicle groups received the same volume and concentration of diluted DMSO in 20% PEG300. Treatment started at P13 and continued until mice were sacrificed at P42.
For evaluating hippocampus-dependent memory, the protocol described in Lau and Yang, et al., 2023 for the fear conditioning test was followed. Mice were placed in an electrified and sound-attenuated chamber (Coulbourn Instruments, Allentown, PA) which was exposed to a scent (0.1% coconut) diluted in ethanol (70%) on day 1. Mice were habituated to the chamber for 3 min before undergoing three conditioning trials: a tone (5 kHz, 70 dB, 30 s) co-terminating with a foot shock (0.7 mA, 1 s). Conditioning trials were separated by a 30-second interval. Following conditioning, mice rested inside the chamber for 1.5 min before returning to their home cage. […]

Entries after “also recorded” stand apart in the source; their conditions may differ.

As for `Oc1ccc(C2(c3ccccc3F)CCC(F)(F)CC2)cc1` [AC-186], the “oligodendrocyte differentiation (MAG, CNPase, MBP)” value in data set [1] is reported as “no impact on oligodendrocyte differentiation”. The bioavailability entry in data set [2] is on record as “satisfactory bioavailability; also recorded: effective bioavailability”. Moreover, in data set [3] (AS mice, 10 mg/kg daily IP, vs AS vehicle, 10 mg/kg), the “Contextual fear conditioning, percentage of time spent freezing” value is “ameliorated; also recorded: increased”. In data set [3] (all four groups), the cued fear conditioning result is recorded as “no intergroup differences”.

The values above are taken from patent US20250032425A1, “FIRST IN CLASS USE OF ESTROGEN RECEPTOR BETA AGONISTS IN TREATING ANGELMAN SYNDROME AND RELEVANT AUTISM SPECTRUM DISORDERS” (BROWN UNIVERSITY, priority 2023, published 2025).
